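Cells were grown in 96-well plates and exposed to each compound for 48 hours at five concentrations; endpoints were interpolated linearly between bracketing concentrations, or set to the highest concentration if not reached. GI50 = concentration required for 50% inhibition of growth. TGI: total growth inhibition.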
How the values were obtained:
Experiment in all cases: DTP human tumour cell line panel, 48 h
ACHN renal = tested on: ACHN renal
HCT-15 colon = tested on: HCT-15 colon
MOLT-4 leukemia = tested on: MOLT-4 leukemia
TK-10 renal = tested on: TK-10 renal
SF-295 CNS = tested on: SF-295 CNS
HL-60(TB) leukemia = tested on: HL-60(TB) leukemia
NCI-H23 lung = tested on: NCI-H23 lung
M14 melanoma = tested on: M14 melanoma
NCI/ADR-RES ovarian = tested on: NCI/ADR-RES ovarian
BT-549 breast = tested on: BT-549 breast
U251 CNS = tested on: U251 CNS
SK-OV-3 ovarian = tested on: SK-OV-3 ovarian
HOP-92 NSCLC = tested on: HOP-92 NSCLC
K-562 leukemia = tested on: K-562 leukemia
SNB-75 CNS = tested on: SNB-75 CNS
IGROV1 ovarian = tested on: IGROV1 ovarian
OVCAR-3 ovarian = tested on: OVCAR-3 ovarian
T-47D breast = tested on: T-47D breast
HS 578T breast = tested on: HS 578T breast
HOP-62 NSCLC = tested on: HOP-62 NSCLC
OVCAR-5 ovarian = tested on: OVCAR-5 ovarian
RXF 393 renal = tested on: RXF 393 renal
SK-MEL-2 melanoma = tested on: SK-MEL-2 melanoma
MCF7 breast = tested on: MCF7 breast
CCRF-CEM leukemia = tested on: CCRF-CEM leukemia
DU-145 prostate = tested on: DU-145 prostate
SW-620 colon = tested on: SW-620 colon
A549 NSCLC = tested on: A549 NSCLC
LOX IMVI melanoma = tested on: LOX IMVI melanoma
MALME-3M melanoma = tested on: MALME-3M melanoma
SK-MEL-28 melanoma = tested on: SK-MEL-28 melanoma
NCI-H522 lung = tested on: NCI-H522 lung
KM12 colon = tested on: KM12 colon
HCC-2998 colon = tested on: HCC-2998 colon
UACC-62 melanoma = tested on: UACC-62 melanoma
786-0 renal = tested on: 786-0 renal
NCI-H460 lung = tested on: NCI-H460 lung
COLO 205 colon = tested on: COLO 205 colon
SNB-19 CNS = tested on: SNB-19 CNS
SN12C renal = tested on: SN12C renal
NCI-H226 lung = tested on: NCI-H226 lung
RPMI-8226 leukemia = tested on: RPMI-8226 leukemia
UO-31 renal = tested on: UO-31 renal
MDA-MB-231 breast = tested on: MDA-MB-231 breast
PC-3 prostate = tested on: PC-3 prostate
MDA-MB-435 = tested on: MDA-MB-435
SR leukemia = tested on: SR leukemia
OVCAR-8 ovarian = tested on: OVCAR-8 ovarian
HCT-116 colon = tested on: HCT-116 colon
OVCAR-4 ovarian = tested on: OVCAR-4 ovarian
EKVX NSCLC = tested on: EKVX NSCLC
SF-539 CNS = tested on: SF-539 CNS
SF-268 CNS = tested on: SF-268 CNS
CAKI-1 renal = tested on: CAKI-1 renal
UACC-257 melanoma = tested on: UACC-257 melanoma
SK-MEL-5 melanoma = tested on: SK-MEL-5 melanoma
A498 renal = tested on: A498 renal
HT29 colon = tested on: HT29 colon

O=C1c2cc([N+](=O)[O-])cnc2S(=O)(=O)N1c1ccc(Oc2ccccc2)cc1
TGI (ACHN renal): > 100 µM
TGI (HCT-15 colon): > 100 µM
TGI (MOLT-4 leukemia): > 100 µM
TGI (TK-10 renal): > 100 µM
TGI (SF-295 CNS): > 100 µM
TGI (HL-60(TB) leukemia): > 100 µM
TGI (NCI-H23 lung): > 100 µM
TGI (M14 melanoma): > 100 µM
TGI (NCI/ADR-RES ovarian): > 100 µM
TGI (BT-549 breast): > 100 µM
TGI (U251 CNS): > 100 µM
TGI (SK-OV-3 ovarian): > 100 µM
TGI (HOP-92 NSCLC): > 100 µM
TGI (K-562 leukemia): > 100 µM
TGI (SNB-75 CNS): > 100 µM
TGI (IGROV1 ovarian): > 100 µM
TGI (OVCAR-3 ovarian): > 100 µM
TGI (T-47D breast): > 100 µM
TGI (HS 578T breast): > 100 µM
TGI (HOP-62 NSCLC): > 100 µM
TGI (OVCAR-5 ovarian): > 100 µM
TGI (RXF 393 renal): > 100 µM
TGI (SK-MEL-2 melanoma): > 100 µM
TGI (MCF7 breast): > 100 µM
TGI (CCRF-CEM leukemia): > 100 µM
TGI (DU-145 prostate): > 100 µM
TGI (SW-620 colon): > 100 µM
TGI (A549 NSCLC): > 100 µM
TGI (LOX IMVI melanoma): > 100 µM
TGI (MALME-3M melanoma): > 100 µM
TGI (SK-MEL-28 melanoma): > 100 µM
TGI (NCI-H522 lung): > 100 µM
TGI (KM12 colon): > 100 µM
TGI (HCC-2998 colon): > 100 µM
TGI (UACC-62 melanoma): > 100 µM
TGI (786-0 renal): > 100 µM
TGI (NCI-H460 lung): > 100 µM
TGI (COLO 205 colon): > 100 µM
TGI (SNB-19 CNS): > 100 µM
TGI (SN12C renal): > 100 µM
TGI (NCI-H226 lung): > 100 µM
TGI (RPMI-8226 leukemia): > 100 µM
TGI (UO-31 renal): > 100 µM
TGI (MDA-MB-231 breast): > 100 µM
TGI (PC-3 prostate): > 100 µM
TGI (MDA-MB-435): > 100 µM
TGI (SR leukemia): > 100 µM
TGI (OVCAR-8 ovarian): > 100 µM
TGI (HCT-116 colon): > 100 µM
TGI (OVCAR-4 ovarian): > 100 µM
TGI (EKVX NSCLC): > 100 µM

C=C1CCC2C3(C)COC(c4cccc(Cl)c4)OC3CCC2(C)C1/C=C/C1=CCOC1=O (centres undefined)
GI50 (ACHN renal): > 100 µM
TGI (ACHN renal): > 100 µM
GI50 (HCT-15 colon): 6.75 µM
TGI (HCT-15 colon): > 100 µM
GI50 (MOLT-4 leukemia): 6.55 µM
TGI (MOLT-4 leukemia): > 100 µM
GI50 (TK-10 renal): > 100 µM
TGI (TK-10 renal): > 100 µM
GI50 (SF-295 CNS): 3.59 µM
TGI (SF-295 CNS): > 100 µM
GI50 (HL-60(TB) leukemia): 8.27 µM
TGI (HL-60(TB) leukemia): > 100 µM
GI50 (NCI-H23 lung): 5.17 µM
TGI (NCI-H23 lung): > 100 µM
GI50 (SF-539 CNS): 48.5 µM
TGI (SF-539 CNS): > 100 µM
GI50 (M14 melanoma): > 100 µM
TGI (M14 melanoma): > 100 µM
GI50 (NCI/ADR-RES ovarian): 6.06 µM
TGI (NCI/ADR-RES ovarian): > 100 µM
GI50 (BT-549 breast): 6.21 µM
TGI (BT-549 breast): > 100 µM
GI50 (U251 CNS): 7.08 µM
TGI (U251 CNS): > 100 µM
GI50 (SK-OV-3 ovarian): > 100 µM
TGI (SK-OV-3 ovarian): > 100 µM
GI50 (SF-268 CNS): > 100 µM
TGI (SF-268 CNS): > 100 µM
GI50 (HOP-92 NSCLC): > 100 µM
TGI (HOP-92 NSCLC): > 100 µM
GI50 (K-562 leukemia): 2.8 µM
TGI (K-562 leukemia): > 100 µM
GI50 (SNB-75 CNS): 6.46 µM
TGI (SNB-75 CNS): > 100 µM
GI50 (IGROV1 ovarian): > 100 µM
TGI (IGROV1 ovarian): > 100 µM
GI50 (OVCAR-3 ovarian): 7.95 µM
TGI (OVCAR-3 ovarian): > 100 µM
GI50 (T-47D breast): 1.83 µM
TGI (T-47D breast): > 100 µM
GI50 (HS 578T breast): 7.42 µM
TGI (HS 578T breast): > 100 µM
GI50 (HOP-62 NSCLC): > 100 µM
TGI (HOP-62 NSCLC): > 100 µM
GI50 (OVCAR-5 ovarian): > 100 µM
TGI (OVCAR-5 ovarian): > 100 µM
GI50 (RXF 393 renal): > 100 µM
TGI (RXF 393 renal): > 100 µM
GI50 (SK-MEL-2 melanoma): > 100 µM
TGI (SK-MEL-2 melanoma): > 100 µM
GI50 (MCF7 breast): 3.8 µM
TGI (MCF7 breast): > 100 µM
GI50 (CCRF-CEM leukemia): 7.51 µM
TGI (CCRF-CEM leukemia): > 100 µM
GI50 (CAKI-1 renal): 7.78 µM
TGI (CAKI-1 renal): > 100 µM
GI50 (DU-145 prostate): > 100 µM
TGI (DU-145 prostate): > 100 µM
GI50 (SW-620 colon): 80.3 µM
TGI (SW-620 colon): > 100 µM
GI50 (A549 NSCLC): 3.31 µM
TGI (A549 NSCLC): > 100 µM
GI50 (LOX IMVI melanoma): 2.72 µM
TGI (LOX IMVI melanoma): > 100 µM
GI50 (MALME-3M melanoma): > 100 µM
TGI (MALME-3M melanoma): > 100 µM
GI50 (SK-MEL-28 melanoma): > 100 µM
TGI (SK-MEL-28 melanoma): > 100 µM
GI50 (UACC-257 melanoma): 3.43 µM
TGI (UACC-257 melanoma): > 100 µM
GI50 (SK-MEL-5 melanoma): 3.39 µM
TGI (SK-MEL-5 melanoma): > 100 µM
GI50 (NCI-H522 lung): 2.92 µM
TGI (NCI-H522 lung): > 100 µM
GI50 (KM12 colon): 8.01 µM
TGI (KM12 colon): > 100 µM
GI50 (UACC-62 melanoma): 6.35 µM
TGI (UACC-62 melanoma): > 100 µM
GI50 (786-0 renal): > 100 µM
TGI (786-0 renal): > 100 µM
GI50 (NCI-H460 lung): 5.15 µM
TGI (NCI-H460 lung): > 100 µM
GI50 (SNB-19 CNS): > 100 µM
TGI (SNB-19 CNS): > 100 µM
GI50 (A498 renal): 2.54 µM
TGI (A498 renal): > 100 µM
GI50 (SN12C renal): > 100 µM
TGI (SN12C renal): > 100 µM
GI50 (NCI-H226 lung): 6.92 µM
TGI (NCI-H226 lung): > 100 µM
GI50 (RPMI-8226 leukemia): 2.9 µM
TGI (RPMI-8226 leukemia): > 100 µM
GI50 (HT29 colon): 5.32 µM
TGI (HT29 colon): > 100 µM
GI50 (MDA-MB-231 breast): 6.84 µM
TGI (MDA-MB-231 breast): > 100 µM
GI50 (PC-3 prostate): 3.77 µM
TGI (PC-3 prostate): > 100 µM
GI50 (MDA-MB-435): 9.68 µM
TGI (MDA-MB-435): > 100 µM
GI50 (SR leukemia): 4.11 µM
TGI (SR leukemia): > 100 µM
GI50 (OVCAR-8 ovarian): 6.73 µM
TGI (OVCAR-8 ovarian): > 100 µM
GI50 (HCT-116 colon): 3.08 µM
TGI (HCT-116 colon): > 100 µM
GI50 (EKVX NSCLC): 2.55 µM
TGI (EKVX NSCLC): > 100 µM
